Values joined by “and” are separate entries in the source; they are usually repeats but may differ in a detail not shown here. Equal values may be shown once. Inconclusive results and toxic doses are left out.
System: L1210 leukemia ip in BDF1 mice, survival T/C
Test: NCI In Vivo Anticancer Drug Screen. Data for tumor model L1210 Leukemia (intraperitoneal) in B6D2F1 (BDF1) mice
Conditions: endpoint: mean survival time, higher = longer survival
Summary of the method: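 Survival endpoint. Drug-treated group vs vehicle group, expressed as T divided by C. Tumor passaged by transplantation.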

[1] = dose: 3.75 mg/kg/injection, schedule: Q01DX Z (ip), vehicle: saline
[2] = dose: 7.5 mg/kg/injection, schedule: Q01DX Z (ip), vehicle: saline
[3] = dose: 100.0 mg/kg/injection, schedule: Q01DX001 (ip), vehicle: saline
[4] = dose: 100.0 mg/kg/injection, schedule: Q04DX003 (ip), vehicle: saline with Tween-80
[5] = dose: 200.0 mg/kg/injection, schedule: Q04DX003 (ip), vehicle: saline with Tween-80
[6] = dose: 400.0 mg/kg/injection, schedule: Q04DX003 (ip), vehicle: saline with Tween-80
[7] = dose: 100.0 mg/kg/injection, schedule: Q01DX009 (ip), vehicle: saline with Tween-80
[8] = dose: 200.0 mg/kg/injection, schedule: Q01DX009 (ip), vehicle: saline with Tween-80
[9] = dose: 400.0 mg/kg/injection, schedule: Q01DX009 (ip), vehicle: saline with Tween-80
[10] = dose: 150.0 mg/kg/injection, schedule: Q01DX001 (ip), vehicle: saline
[11] = dose: 100.0 mg/kg/injection, schedule: Q01DX009 (ip), vehicle: Klucel (hydroxypropylcellulose) (HPC)
[12] = dose: 200.0 mg/kg/injection, schedule: Q01DX009 (ip), vehicle: Klucel (hydroxypropylcellulose) (HPC)
[13] = dose: 400.0 mg/kg/injection, schedule: Q01DX009 (ip), vehicle: Klucel (hydroxypropylcellulose) (HPC)
[14] = dose: 50.0 mg/kg/injection, schedule: Q01DX001 (ip), vehicle: carboxymethylcellulose (CMC)
[15] = dose: 100.0 mg/kg/injection, schedule: Q01DX001 (ip), vehicle: carboxymethylcellulose (CMC)
[16] = dose: 75.0 mg/kg/injection, schedule: Q01DX001 (ip), vehicle: saline
[17] = dose: 100.0 mg/kg/injection, schedule: Q04DX003 (ip), vehicle: saline
[18] = dose: 200.0 mg/kg/injection, schedule: Q04DX003 (ip), vehicle: saline
[19] = dose: 400.0 mg/kg/injection, schedule: Q04DX003 (ip), vehicle: saline
[20] = dose: 100.0 mg/kg/injection, schedule: Q04DX002 (ip), vehicle: saline with Tween-80
[21] = dose: 200.0 mg/kg/injection, schedule: Q04DX002 (ip), vehicle: saline with Tween-80
[22] = dose: 200.0 mg/kg/injection, schedule: Q01DX001 (ip), vehicle: saline
[23] = dose: 100.0 mg/kg/injection, schedule: Q01DX009 (ip), vehicle: saline

O=C(/C=C\c1ccc(/C=C/C(=O)Nc2cccc(C3=NCCN3)c2)cc1)Nc1cccc(C2=NCCN2)c1
T/C [1]: 107 % of control | T/C [2]: 120 % of control | T/C (dose: 15.0 mg/kg/injection, schedule: Q01DX Z (ip), vehicle: saline): 122 % of control | T/C (dose: 30.0 mg/kg/injection, schedule: Q01DX Z (ip), vehicle: saline): 184 % of control | T/C (dose: 60.0 mg/kg/injection, schedule: Q01DX Z (ip), vehicle: saline): 189 % of control | T/C (dose: 120.0 mg/kg/injection, schedule: Q01DX Z (ip), vehicle: saline): 182 % of control | T/C (dose: 240.0 mg/kg/injection, schedule: Q01DX Z (ip), vehicle: saline): 167 % of control

COC(=O)c1ccc(N(C)CCC(=O)CBr)cc1
T/C [3]: 95 % of control

O=C(O)/C=C/C(=O)Nc1ccc(NC(=O)/C=C/C(=O)O)cc1
T/C [4]: 98 % of control | T/C [5]: 95 % of control | T/C [6]: 96 % of control

C[n+]1ccccc1SC12CC3CC(CC(C3)C1)C2
T/C (dose: 10.0 mg/kg/injection, schedule: Q01DX009 (ip), vehicle: Klucel (hydroxypropylcellulose) (HPC)): 113 % of control

COC1(c2ccc(C(F)(F)F)cc2)OC1(C)C (stereo not drawn)
T/C [7]: 98 % of control | T/C [4]: 96 % of control | T/C [8]: 100 % of control | T/C [5]: 102 % of control | T/C [9]: 104 % of control | T/C [6]: 102 % of control

O=C(O)/C=C/c1cnccn1
T/C (dose: 100.0 mg/kg/injection, schedule: Q04DX003 (ip), vehicle: carboxymethylcellulose (CMC)): 103 % of control | T/C (dose: 200.0 mg/kg/injection, schedule: Q04DX003 (ip), vehicle: carboxymethylcellulose (CMC)): 93 % of control | T/C (dose: 400.0 mg/kg/injection, schedule: Q04DX003 (ip), vehicle: carboxymethylcellulose (CMC)): 97 % of control

CCN(CC)P(=O)(N1CC1C)N1CC1C (stereo not drawn)
T/C (dose: 4.4 mg/kg/injection, schedule: Q01DX015 (ip), vehicle: saline): 111 % of control | T/C (dose: 6.25 mg/kg/injection, schedule: Q01DX009 (ip), vehicle: saline): 122 % of control | T/C (dose: 6.6 mg/kg/injection, schedule: Q01DX015 (ip), vehicle: saline): 105 % of control | T/C (dose: 10.0 mg/kg/injection, schedule: Q01DX015 (ip), vehicle: saline): 106 % of control | T/C (dose: 14.0 mg/kg/injection, schedule: Q01DX009 (ip), vehicle: saline): 112 % of control | T/C (dose: 15.0 mg/kg/injection, schedule: Q01DX015 (ip), vehicle: saline): 106 % of control | T/C (dose: 33.0 mg/kg/injection, schedule: Q01DX015 (ip), vehicle: saline): 109 % of control | T/C (dose: 44.4 mg/kg/injection, schedule: Q01DX001 (ip), vehicle: saline): 108 % of control and 115 % of control | T/C (dose: 50.0 mg/kg/injection, schedule: Q01DX015 (ip), vehicle: saline): 102 % of control | T/C (dose: 66.6 mg/kg/injection, schedule: Q01DX001 (ip), vehicle: saline): 121 % of control | T/C (dose: 75.0 mg/kg/injection, schedule: Q01DX009 (ip), vehicle: saline): 90 % of control | T/C [10]: 157 % of control

CCN(CC)c1ccc(N=Nc2cc(Cl)ccc2Cl)c(NC(=O)CSC(C)=O)c1
T/C [11]: 110 % of control | T/C [12]: 101 % of control | T/C [13]: 97 % of control

CCCC1C(CC)C=NN1Cc1ccccc1 (stereo not drawn)
T/C [14]: 88 % of control | T/C [15]: 100 % of control | T/C (dose: 200.0 mg/kg/injection, schedule: Q01DX001 (ip), vehicle: carboxymethylcellulose (CMC)): 94 % of control | T/C (dose: 400.0 mg/kg/injection, schedule: Q01DX001 (ip), vehicle: carboxymethylcellulose (CMC)): 92 % of control

CN(C)c1ccc(/C=C2\SC(=S)N(c3ccccc3)C2=O)cc1
T/C (dose: 50.0 mg/kg/injection, schedule: Q01DX009 (ip), vehicle: saline with Tween-80): 96 % of control | T/C [7]: 103 % of control | T/C [8]: 100 % of control

COc1cc2c(cc1OC)C1(CCBr)C3CC4C(=CCOC5CC(=O)N2C1C54)CN3C(=O)Cc1ccccc1 (stereo not drawn)
T/C [16]: 107 % of control

COC(=O)CCCCCCCCC(C)c1ccccc1 (stereo not drawn)
T/C [11]: 98 % of control | T/C [17]: 103 % of control | T/C [12]: 92 % of control | T/C [18]: 89 % of control | T/C [13]: 97 % of control | T/C [19]: 92 % of control

CN=C(NC)c1ccc(NC(=O)c2ccc(C(=O)Nc3ccc(C(=NC)NC)cc3)c([N+](=O)[O-])c2)cc1
T/C (dose: 1.88 mg/kg/injection, schedule: Q01DX Z (ip), vehicle: saline): 100 % of control | T/C [1]: 111 % of control | T/C [2]: 108 % of control

CC(O)CNC(=S)c1ccccc1 (stereo not drawn)
T/C [20]: 101 % of control | T/C [21]: 101 % of control

Cc1cccc(Cl)c1NC(=O)CN(C)C
T/C [3]: 104 % of control | T/C [22]: 98 % of control

CN(C)P(N(C)C)N(C)C
T/C (dose: 50.0 mg/kg/injection, schedule: Q01DX001 (ip), vehicle: saline): 104 % of control | T/C [3]: 95 % of control | T/C [22]: 93 % of control | T/C (dose: 400.0 mg/kg/injection, schedule: Q01DX001 (ip), vehicle: saline): 101 % of control

O=[N+]([O-])c1ccc(O)c(CCl)c1
T/C (dose: 50.0 mg/kg/injection, schedule: Q04DX002 (ip), vehicle: saline with Tween-80): 109 % of control | T/C (dose: 100.0 mg/kg/injection, schedule: Q04DX002 (ip), vehicle: DMSO): 107 % of control | T/C [20]: 109 % of control | T/C (dose: 200.0 mg/kg/injection, schedule: Q04DX002 (ip), vehicle: DMSO): 86 % of control | T/C [21]: 98 % of control | T/C (dose: 400.0 mg/kg/injection, schedule: Q04DX002 (ip), vehicle: saline with Tween-80): 104 % of control

CC(C)(C)[Si](O)C(C)(C)C
T/C [16]: 91 % of control | T/C [10]: 98 % of control | T/C (dose: 300.0 mg/kg/injection, schedule: Q01DX001 (ip), vehicle: saline): 96 % of control

O=C(CCl)N1c2ccccc2Oc2cc3ccccc3cc21
T/C [23]: 100 % of control | T/C [17]: 95 % of control | T/C (dose: 200.0 mg/kg/injection, schedule: Q01DX009 (ip), vehicle: saline): 90 % of control | T/C [18]: 101 % of control | T/C (dose: 400.0 mg/kg/injection, schedule: Q01DX009 (ip), vehicle: saline): 92 % of control | T/C [19]: 92 % of control

CN=C(NC(C=O)C(O)C(O)C(O)CO)c1ccc(NC(=O)c2ccc(C(=O)Nc3ccc(C(=NC)NC(C=O)C(O)C(O)C(O)CO)cc3)cc2)cc1 (stereo not drawn)
T/C (dose: 62.0 mg/kg/injection, schedule: Q01DX Z (ip), vehicle: water): 111 % of control | T/C (dose: 125.0 mg/kg/injection, schedule: Q01DX Z (ip), vehicle: water): 115 % of control

Clc1cccc(Nc2nc(Cl)nc(C(Cl)(Cl)Cl)c2Cl)c1
T/C [7]: 88 % of control | T/C [8]: 94 % of control | T/C [9]: 88 % of control

Nc1ncnc2c1ccn2C1CCCC1
T/C (dose: 25.0 mg/kg/injection, schedule: Q01DX001 (ip), vehicle: carboxymethylcellulose (CMC)): 100 % of control | T/C [14]: 111 % of control | T/C [15]: 105 % of control

NC(=S)N/N=C/c1cc(Cl)cc(Cl)c1
T/C (dose: 100.0 mg/kg/injection, schedule: Q01DX001 (ip), vehicle: other): 96 % of control | T/C (dose: 200.0 mg/kg/injection, schedule: Q01DX001 (ip), vehicle: other): 102 % of control | T/C (dose: 400.0 mg/kg/injection, schedule: Q01DX001 (ip), vehicle: other): 106 % of control

CCCCCCCCC(=O)N(C)CCO
T/C (dose: 25.0 mg/kg/injection, schedule: Q01DX009 (ip), vehicle: saline): 104 % of control | T/C (dose: 50.0 mg/kg/injection, schedule: Q01DX009 (ip), vehicle: saline): 96 % of control | T/C [23]: 100 % of control | T/C [17]: 109 % of control | T/C [5]: 95 % of control | T/C [18]: 98 % of control

Source: PubChem BioAssay AID248 (DTP/NCI, 2004)
